Patent EP1752149A1 (LABORATORIOS DEL DR. ESTEVE, S.A., priority 2005, dated 2007)

How the values were obtained:
[1] = In-vivo bioassay system for determination of cannabinoid activity (hot-plate test, hypothermia, catalepsy, sedation); conditions: for Agonistic effect A: Hot-Plate test / Agonistic effect B: Hypothermia / Agonistic effect C: Catalepsy / Agonistic effect D: Sedation: 5 mg/kg i.v.
TNFα = experiment: Inhibition of cytokine production: TNFα secretion by Jurkat T cells, ELISA; format: cell-based, human; conditions: Jurkat (PMA+Ion), 24 hours; for IC50: Homo sapiens, approximated value, read-out: TNF IC-50 (µM), inhibition of the cytokine production
Description: (§1) In addition to the transcriptional assays, we have also determined the effects of the compound according to example 1 in the secretion of TNFα and IL-2 to the culture medium. Jurkat T cells were treated with different doses of the compound according to example 1 in the presence or absence of stimulation with PMA plus Ion for 24 hours. Supematants were collected and cytokines were measured by specific ELISA for each cytokine (Bender MedSystems). Results are represented as percentage of cytokine production, considering 100% the maximal levels of cytokine production (pg/ml) obtained in PMA+lon stimulated Jurkat cells in the absence of the compound according to example 1.

[2] = tested on: tumor necrosis factor α (TNF-LUC); experiment: TNF-LUC promoter luciferase reporter in Jurkat T cells; format: cell-based, human; conditions: Jurkat (PMA+Ion); for IC50: Homo sapiens, approximated value, read-out: TNF-LUC IC-50
Description: (§2) It was also analyzed how these compounds affect transcriptional induction mediated by the transcription factors Nuclear factor of activated T cells (NFAT) or Nuclear factor (NF)-κB. In these experiments, Jurkat T cells or THP-1 cells were transiently transfected by the Lipofectamine2000 reagent (Invitrogen), with luciferase reporter constructs whose expression are directed by three copies of the Interleukin-2 (IL-2) NFAT responsive element (NFAT-LUC) or by three copies of an NF-κB responsive element (NF-κB-LUC). Cells were treated with increased doses of the compound according to example 1 in the presence or absence of stimulation with the phorbol ester PMA (15 ng/ml) plus the A23187 calcium ionophore (1µM) for 6 hours in Jurkat cells or with LPS (5 µg/ml) for 18 hours in THP-1 cells and luciferase activity was measured in cell lysates. Results obtained are represented as percentage of activation, considering 100% the value of luciferase activity obtained in stimulated cells in the absence of the compound according to example 1. The approximate IC-50 (µM) values for the inhibition of the transcriptional activation of NFAT and NF-κB are also shown (Table 2).
(§3) The compound according to example 1 was measured for its ability to regulate gene transcription in immune activation through the modulation of the transcriptional activity of luciferase reporter constructs whose expression is directed by the promoter region of genes involved in the inflammation process and immune activation, such as cyclooxygenase-2 (COX-LUC), tumor necrosis factor α (TNF-LUC), Interleukin-2 (IL-2-LUC), Interleukin-6 (IL-6-LUC) and the inducible Nitric Oxide Synthase (iNOS-LUC). Jurkat T cells or THP-1 cells were transiently transfected with these constructs as described above, and treated with different doses of The compound according to example 1 in the presence or absence of stimulation with PMA plus Ion (Jurkat) or LPS in a similar way as for NFAT-LUC and NFKB-LUC reporter analysis. Results are represented as percentage of activation, considering 100% the value of luciferase activity obtained in stimulated cells in the absence of the compound according to example 1. Approximated IC50 (µM) values obtained for inhibition of the transcriptional activation are summarized in tables 3 (Jurkat) and 4 (THP-1).

[3] = tested on: cyclooxygenase-2 (COX-LUC); experiment: COX2-LUC promoter luciferase reporter in Jurkat T cells; format: cell-based, human; conditions: Jurkat (PMA+Ion); for IC50: Homo sapiens, approximated value, read-out: COX2-LUC IC-50
Description: as §2, §3

Nuclear factor (NF)-κB [4] = experiment: NF-κB-LUC luciferase reporter, transcriptional activation in Jurkat T cells; format: cell-based, human; conditions: Jurkat (PMA+Ion), 6 hours; for IC50: Homo sapiens, approximate value, read-out: NF-κB -LUC IC-50
Description: as §2

[5] = Cell viability, tetrazolium salt WST-1, LPS treated THP-1 cells; format: cell-based; conditions: human, THP-1 (LPS 5 µg/ml), read-out: percentage of viability
Description: (§4) The viability of the cells was measured by the use of the tetrazolium salt WST-1 (Roche Molecular Biochemicals). Unstimulated Jurkat cells or LPS (5 µg/ml) treated THP-1 cells were incubated for 24 or 18 hours respectively in the presence of increasing doses of the compound according to example 1 (1, 10, 100, 1000 and 10000 nM) and incubated with 10% of WST-1 reagent for 1 hour. Quantification of the formazan dye produced by metabolically active cells was spectrophotometrically measured at 450 nm and a reference wavelength of 630 nm. Data are represented as percentage of viability considering 100% the value of absorbance obtained in the absence of example 1 (Table 1).

IL-2 = experiment: Inhibition of cytokine production: IL-2 secretion by Jurkat T cells, ELISA; format: cell-based, human; conditions: Jurkat (PMA+Ion), 24 hours; for IC50: Homo sapiens, approximated value, read-out: IL-2 IC-50 (µM), inhibition of the cytokine production
Description: as §1

[6] = tested on: cyclooxygenase-2 (COX-LUC); experiment: COX2-LUC promoter luciferase reporter in THP-1 cells; format: cell-based, human; conditions: THP-1 (LPS); for IC50: Homo sapiens, approximated value, read-out: COX2-LUC IC-50
Description: as §2, §3

[7] = tested on: tumor necrosis factor α (TNF-LUC); experiment: TNF-LUC promoter luciferase reporter in THP-1 cells; format: cell-based, human; conditions: THP-1 (LPS); for IC50: Homo sapiens, approximated value, read-out: TNF-LUC IC-50
Description: as §2, §3

[8] = tested on: Nuclear factor of activated T cells (NFAT); experiment: NFAT-LUC luciferase reporter, transcriptional activation in Jurkat T cells; format: cell-based, human; conditions: Jurkat (PMA+Ion), 6 hours; for IC50: Homo sapiens, approximate value, read-out: NFAT-LUC IC-50
Description: as §2

[9] = Cell viability, tetrazolium salt WST-1, unstimulated Jurkat cells; format: cell-based; conditions: human, Jurkat (Cont), read-out: percentage of viability
Description: as §4

[10] = tested on: inducible Nitric Oxide Synthase (iNOS-LUC); experiment: iNOS-LUC promoter luciferase reporter in THP-1 cells; format: cell-based, human; conditions: THP-1 (LPS); for IC50: Homo sapiens, approximated value, read-out: iNOS-LUC IC-50
Description: as §2, §3

Nuclear factor (NF)-κB [11] = experiment: NF-κB-LUC luciferase reporter, transcriptional activation in THP-1 cells; format: cell-based, human; conditions: THP-1 (LPS), 18 hours; for IC50: Homo sapiens, approximate value, read-out: NF-κB-LUC IC-50
Description: as §2

Interleukin-6 (IL-6-LUC) = experiment: IL-6-LUC promoter luciferase reporter in Jurkat T cells; format: cell-based, human; conditions: Jurkat (PMA+Ion); for IC50: Homo sapiens, approximated value, read-out: IL-6-LUC IC-50
Description: as §2, §3

Interleukin-2 (IL-2-LUC) = experiment: IL-2-LUC promoter luciferase reporter in Jurkat T cells; format: cell-based, human; conditions: Jurkat (PMA+Ion); for IC50: Homo sapiens, approximated value, read-out: IL-2-LUC IC-50
Description: as §2, §3

[12] = 5 mg/kg i.v. prior to Win 55212-2 in a dose of 1,25mg/kg i.v.

SMILES: O=C(NN1CCCCC1)C1=NN(c2ccc(Cl)cc2Cl)C(c2ccc(Cl)cc2)C1 (stereo not shown) [Example 1, N-piperidinyl-5-(4-chlorophenyl)-1-(2,4-dichlorophenyl)-4,5-dihydro-1H-pyrazole-3-carboxamide]
- Agonistic effect A: Hot-Plate test [1]: 0
- Agonistic effect B: Hypothermia [1]: 0
- Agonistic effect C: Catalepsy [1]: 0
- Agonistic effect D: Sedation [1]: 0
- Antagonistic Effect B: Hypothermia [1, 12]: 100
- Antagonistic Effect C: Catalepsy [1, 12]: 100
- Antagonistic Effect D: Sedation [1, 12]: 100
- IC50 (TNFα): 5 µM
- TNF percentage of cytokine production (TNFα; 0.01 µM): 79.5%
- TNF percentage of cytokine production (TNFα; 1 µM): 80.3%
- TNF percentage of cytokine production (TNFα; 10 µM): 11.5%
- IC50 [2]: 100 nM
- TNF-LUC percentage of activation ([2]; 0.01 µM): 59.5%
- TNF-LUC percentage of activation ([2]; 1 µM): 29.9%
- TNF-LUC percentage of activation ([2]; 10 µM): 13.7%
- IC50 [3]: 8 µM
- COX2-LUC percentage of activation ([3]; 0.01 µM): 102.7%
- COX2-LUC percentage of activation ([3]; 1 µM): 93.2%
- COX2-LUC percentage of activation ([3]; 10 µM): 31.5%
- IC50 (Nuclear factor (NF)-κB [4]): 7 µM
- NF-κB-LUC percentage of activation (Nuclear factor (NF)-κB [4]; 0.01 µM): 94.7%
- NF-κB-LUC percentage of activation (Nuclear factor (NF)-κB [4]; 1 µM): 74.4%
- NF-κB-LUC percentage of activation (Nuclear factor (NF)-κB [4]; 10 µM): 39.3%
- viability at 18 h, 0.01 µM ([5]; 10 nM): 105%
- viability at 18 h, 1 µM ([5]; 1000 nM): 110%
- viability at 18 h, 10 µM ([5]; 10000 nM): 80.2%
- IC50 (IL-2): 6 µM
- IL-2 percentage of cytokine production (IL-2; 0.01 µM): 97.5%
- IL-2 percentage of cytokine production (IL-2; 1 µM): 98.7%
- IL-2 percentage of cytokine production (IL-2; 10 µM): 13.2%
- IC50 [6]: 2 µM
- COX2-LUC percentage of activation ([6]; 0.01 µM): 102.7%
- COX2-LUC percentage of activation ([6]; 1 µM): 59.6%
- COX2-LUC percentage of activation ([6]; 10 µM): 6.8%
- IC50 [7]: 3000 nM
- TNF-LUC percentage of activation ([7]; 0.01 µM): 104.4%
- TNF-LUC percentage of activation ([7]; 1 µM): 65.4%
- TNF-LUC percentage of activation ([7]; 10 µM): 12.7%
- IC50 [8]: 3000 nM
- NFAT-LUC percentage of activation ([8]; 0.01 µM): 72.4%
- NFAT-LUC percentage of activation ([8]; 1 µM): 56.8%
- NFAT-LUC percentage of activation ([8]; 10 µM): 7.4%
- viability at 24 h, 0.01 µM ([9]; 10 nM): 92.6%
- viability at 24 h, 0.1 µM ([9]; 100 nM): 95.4%
- viability at 24 h, 1 µM ([9]; 1000 nM): 96.3%
- viability at 24 h, 10 µM ([9]; 10000 nM): 97.7%
- IC50 [10]: 4 µM
- iNOS-LUC percentage of activation ([10]; 0.01 µM): 89.5%
- iNOS-LUC percentage of activation ([10]; 1 µM): 71.3%
- iNOS-LUC percentage of activation ([10]; 10 µM): 13.2%
- IC50 (Nuclear factor (NF)-κB [11]): 6 µM
- NF-κB-LUC percentage of activation (Nuclear factor (NF)-κB [11]; 0.01 µM): 100.4%
- NF-κB-LUC percentage of activation (Nuclear factor (NF)-κB [11]; 1 µM): 104.6%
- NF-κB-LUC percentage of activation (Nuclear factor (NF)-κB [11]; 10 µM): 3.4%
- IC50 (Interleukin-6 (IL-6-LUC)): 4000 nM
- IL-6-LUC percentage of activation (Interleukin-6 (IL-6-LUC); 0.01 µM): 82.3%
- IL-6-LUC percentage of activation (Interleukin-6 (IL-6-LUC); 1 µM): 61.8%
- IL-6-LUC percentage of activation (Interleukin-6 (IL-6-LUC); 10 µM): 18.6%
- IC50 (Interleukin-2 (IL-2-LUC)): 1000 nM
- IL-2-LUC percentage of activation (Interleukin-2 (IL-2-LUC); 0.01 µM): 85.9%
- IL-2-LUC percentage of activation (Interleukin-2 (IL-2-LUC); 1 µM): 49.0%
- IL-2-LUC percentage of activation (Interleukin-2 (IL-2-LUC); 10 µM): 9.9%

SMILES: O=C(C1=NN(c2ccc(Cl)cc2Cl)C(c2ccc(Cl)cc2)C1)N1CCCCC1 (stereo not shown) [Example 5, [5-(4-Chloro-phenyl)-1-(2,4-dichloro-phenyl)-4,5-dihydro-1H-pyrazol-3-yl]-piperidin-1-yl-methanone]
- Agonistic effect A: Hot-Plate test [1]: 0
- Agonistic effect B: Hypothermia [1]: 50
- Agonistic effect C: Catalepsy [1]: 0
- Agonistic effect D: Sedation [1]: 0
- Antagonistic Effect A: Hot-Plate test [1, 12]: 50
- Antagonistic Effect B: Hypothermia [1, 12]: 40
- Antagonistic Effect C: Catalepsy [1, 12]: 20
- Antagonistic Effect D: Sedation [1, 12]: 20

SMILES: Cc1c(C(=O)NN2CCCCC2)nn(-c2ccc(Cl)cc2Cl)c1-c1ccc(Cl)cc1 [SR141716, reference compound]
- IC50 (TNFα): 6 µM
- IC50 [2]: 10 nM
- IC50 [3]: > 10 µM
- IC50 (Nuclear factor (NF)-κB [4]): 1 µM
- IC50 (IL-2): 7 µM
- IC50 [6]: 6 µM
- IC50 [7]: 3000 nM
- IC50 [8]: 200 nM
- IC50 [10]: 3 µM
- IC50 (Nuclear factor (NF)-κB [11]): 5 µM
- IC50 (Interleukin-6 (IL-6-LUC)): 1000 nM
- IC50 (Interleukin-2 (IL-2-LUC)): 100 nM
